In patent US11702646B2, “Methods for modulating RNA splicing” (PTC THERAPEUTICS, INC., priority 2016, dated 2023):

Assays:
GM04856 lymphocyte cells = assay: Endpoint RT-PCR for iExon-containing spliced product in GM04856 lymphocyte cells; assay type: cell-based; settings: 10 nM, 1 μM or 10 μM, ~20 h, FIGS. 2A-D and 3-6A
Experimental: Cell treatment: GM04856 lymphocyte cells were diluted in a medium composed of DMEM, 10% FBS and 1× Pen/Strep to a concentration of 2.5e5 cells/mL. 2 mL (500K cells) were seeded in 6-well plates and recovered for 4 h at 37° C., 5% CO2. Compound dilutions were prepared as 2× compound stock in medium (e.g. for final 100 nM, make a 200 nM stock). After 4 h recovery, 2 mL of the 2× compound stock were added to each well, resulting in 4 mL/well with 1× final compound concentration. The cells were incubated for ˜20 h at 37° C., 5% CO2. After incubation, the cells were pelleted for 5 min at 1000 rpm. The supernatant was vacuum-removed and the cells were resuspended in 350 μl of RLT buffer (w/10 μl/mL beta-mercapto-ethanol, RNeasy kit). Total RNA was isolated using the RNeasy Mini Kit from Qiagen according to the manufacturer's instructions. The concentration of the resulting total RNA was determined using Nanodrop and diluted with water to a final concentration of 25 ng/μL.
Endpoint PCR: 20 μL endpoint RT-PCR5 were set up in 96-well plates using the AgPath-ID One-Step RT-PCR Reagents (Applied Biosystems) according to the manufacturer. Each reaction contained 200 nM forward primer, 200 nM reverse primer, and 50 ng total RNA. […] 10 μL of each RT-PCR reactions were analyzed on 2% 48-well E-Gels (Invitrogen) (pre-run 1 min, run 14 min) and imaged using an BioRad Gel Doc EZ Imager. […]

[1] = tested on: RNA transcripts of genes having intronic REMS elements; assay: Change in isoform abundance and iExon/exon inclusion (ΔPSI, Fisher's Exact Test) in the presence of compound; assay type: cell-based; settings: doses ranging from 0.3 μM to 3 μM, statistically significant adjusted Fisher's Exact Test p value
Experimental: Techniques known to one skilled in the art may be used to determine the amount of an RNA transcript(s). In some embodiments, the amount of one, two, three or more RNA transcripts is measured using deep sequencing, such as ILLUMINA® RNASeq, ILLUMINA® next generation sequencing (NGS), ION TORRENT™ RNA next generation sequencing, 454™ pyrosequencing, or Sequencing by Oligo Ligation Detection (SOLID™). In other embodiments, the amount of multiple RNA transcripts is measured using an exon array, such as the GENECHIP® human exon array. In certain embodiments, the amount of one, two, three or more RNA transcripts is determined by RT-PCR. In other embodiments, the amount of one, two, three or more RNA transcripts is measured by RT-qPCR or digital color-coded barcode technology. Techniques for conducting these assays are known to one skilled in the art. […]
Where “U” represents the value for probability of iExon inclusion (a+b)/2/[(a+b)/2+c]^U in the absence of the compound; and, where “C” represents the value for probability of iExon inclusion (a+b)/2/[(a+b)/2+c]^C in the presence of the compound. The values for “a” and “b” represent the number of reads supporting inclusion of an iExon in an RNA transcript. In other words, the “a” value is derived from the amount of reads for a first intronic nucleotide sequence comprising, in 5′ to 3′ order: a first exon having a 5′ splice site operably linked and upstream from a first intronic nucleotide sequence comprising a first branch point further operably linked and upstream from a first intronic 3′ splice site (upstream of the nascent iExon). The “b” value is derived from the amount of reads for a second intronic nucleotide sequence comprising, in 5′ to 3′ order: an iREMS sequence operably linked downstream from the first intronic 3′ splice site and upstream from a second intronic nucleotide sequence comprising a second branch point further operably linked and upstream from a second intronic 3′ splice site of a second exon. The value for “c” represents the number of reads supporting exclusion of an iExon. […]

SMILES: CCc1nc(C)cn2nc(-c3cc(=O)n4cc(C5CCN(C)CC5)cc(C)c4n3)cc12 [Compound 774]
- PCR product containing the intronic-derived exon (endpoint RT-PCR, agarose gel) (GM04856 lymphocyte cells): appearance of a slower migrating PCR product containing the intronic-derived exon
- effect on change in isoform abundance as a result of having intronic REMS elements ([1]; genes of Table 7): demonstrate an effect on change in isoform abundance
- effect on inclusion of an iExon with a corresponding change in isoform abundance ([1]; genes of Table 7a): demonstrate an effect on inclusion of an iExon with a corresponding change in isoform abundance
- effect on inclusion of an exon with a corresponding change in isoform abundance ([1]; genes of Table 7b): demonstrate an effect on inclusion of an exon with a corresponding change in isoform abundance
